Measurements from US20230009608A1, “GRK2 INHIBITORS AND USES THEREOF” (Cygnal Therapeutics, Inc., priority 2020, published 2023).
pIC50: −log10 of the molar value. Where two headings read alike, the source gives them in different places.

Assays:
GRK2 = target: T1, GRK2 (Homo sapiens, UniProt P25098); test: ADPGlo GRK2 Inhibition Assay (Example 8); format: biochemical
T1 construct: purchased SignalChem A14-10G
T1 sequence (P25098 1-689): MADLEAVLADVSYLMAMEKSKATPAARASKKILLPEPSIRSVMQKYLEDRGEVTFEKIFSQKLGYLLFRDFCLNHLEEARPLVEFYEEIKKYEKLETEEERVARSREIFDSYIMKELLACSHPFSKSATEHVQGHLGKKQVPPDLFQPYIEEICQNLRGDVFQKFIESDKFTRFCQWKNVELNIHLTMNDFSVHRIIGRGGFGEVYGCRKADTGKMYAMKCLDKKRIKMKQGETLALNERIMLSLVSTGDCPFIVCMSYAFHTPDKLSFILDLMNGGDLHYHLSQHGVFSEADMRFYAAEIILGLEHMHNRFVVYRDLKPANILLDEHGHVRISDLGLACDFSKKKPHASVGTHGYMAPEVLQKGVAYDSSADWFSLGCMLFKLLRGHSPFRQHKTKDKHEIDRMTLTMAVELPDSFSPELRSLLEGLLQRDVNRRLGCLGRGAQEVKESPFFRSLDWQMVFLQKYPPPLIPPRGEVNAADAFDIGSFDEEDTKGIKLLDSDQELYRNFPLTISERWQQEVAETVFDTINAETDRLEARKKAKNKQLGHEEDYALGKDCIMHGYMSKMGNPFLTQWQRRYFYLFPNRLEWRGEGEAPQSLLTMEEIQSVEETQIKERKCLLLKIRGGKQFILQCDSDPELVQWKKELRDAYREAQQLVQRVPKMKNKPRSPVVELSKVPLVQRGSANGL
Protocol: HTS was performed using 1 μM compound.
Compounds were dissolved in 100% DMSO, serially diluted tree-fold from 100 μM concentration to 46 nM and transferred (50 nL) into assay ready plate.
Materials: GRK2 was purchased from SignalChem (Cat #A14-10G, Lot #X^645-3). Substrate GRKtide was from SignalChem (Cat #G46-58, Lot #R339-6). ADP-Glo Kinase Assay from Promega (Cat #V9102). Assay buffer consisted of 25 mMv HEPES (pH7.5), 10 mMv MgCl2, 0.01% Tween-20, 1 mM DDT. 384-well white plates were from Greiner […] (Item #784075).
HTS protocol: Take 384 well plate with 50 nL of compound in columns 3-22/DMSO solution 1-2,23-24. Add 2.5 μL assay buffer to columns 23 and 24 using Thermo Scientific Multidrop Combi Dispenser. Add 2.5 μL of 2× enzyme solution (15 nM in 1× assay buffer) using Thermo Scientific Multidrop Combi Reagent Dispenser to all columns except of 23 and 24. Incubate for 15 minutes. Fill plate with 2.5 μL of 2× substrate mix (20 μM ATP and 0.6 mg/nt GRKtide in Ix assay buffer) using Thermo Scientific Multidrop Combi Reagent Dispenser. Spin 15 seconds at 1000 rpm and incubate for 180 min at room temperature. Add 5 μL ADP-Glo reagent to all the wells. Spin 15 seconds at 1000 rpm and incubate for 40 min at room temperature. Add 10 μL Detection solution to all the wells. Incubate for 30 min at room temperature. Read plate in Luminescent modeon BMG PheraStar FSX (gain=3600).
Data Analysis: Data were analyzed in GraphPad Prism 8.0.2. Each HTS plate contains compounds in columns 3-22, controls (enzyme, no compound) in columns 1 and 2, and blanks (no enzyme) in columns 23 and 24. HTS percent inhibition was calculated for each compound from the signal in luminescence units and the mean of the plate controls and the mean of the plate blanks using the following equation: % Inhibition=100*(1−((signal-blank mean)/(control mean-blank mean))). At the final stage of data processing, we obtain dose-response curves, tables and SDF-files with the results of screening for each substance.

[1] = system: PAXF1657 control empty vector cell line; test: 7-day proliferation assay, PAXF1657 control empty vector cell line (Example 9); format: cell-based; details: 168 h; Cell Line: PAXF1657 empty vector (EV) cell line; 7-day; read-out: C: 7-day proliferation assay: IC50 GeoMean
Protocol: In order to identify compounds specific for GRK2, we generated two isogenic cell line pairs of the pancreatic cancer cell line PAXF1657, a pair of cells stably overexpressing GRK2 cDNA or the control empty vector and a cell line pair of PAXF1657 GRK2 knockout clonal cells versus non-targeting control clonal cells.
Proliferation Assay: Cellular anti-proliferative activity of compounds was assessed by using the pancreatic cancer cell line, PAXF1657, stably overexpressing GRK2 cDNA or the control empty vector, as well as the parental urinary bladder cancer cell line, 5637. In addition, we also took advantage of GRK2 knockout cell lines that were generated via CRISPR. Cell lines were seeded into tissue culture treated, white-walled, 96-well plates at a density of 500 cells/well in RPMI1640 media supplemented with 10% H.I. FBS and penicillin/streptomycin. Plates were incubated overnight at 37° C., 5% CO2 to allow cells to adhere to the wells. GRK2 inhibitors were added to the cells using a 10-point dilution series with a final concentration ranging from 30 μM-0.0002 μM in 0.3% DMSO. At the time of compound addition, a set of plates, that were not treated with compounds, were collected and cell viability was measured using CellTiter-Glo (Promega). CellTiter-Glo reagent was added to the designed plates and luminescence was measuring using a Biotek Synergy plate reader. The compound treated cells were incubated for 3 days at 37° C., 5% CO2. The media was then aspirated from each well and replaced with fresh media containing GRK2 inhibitors. The compound treated cells were then incubated for an additional 4 days at 37° C., 5% CO2. Cell viability was assessed and at end of the 7-day compound treatment by CellTiterGlo.

[2] = ADPGlo GRK2 enzyme assay, read-out: A: Enzymatic GRK2: IC50 (nM) (Example 8)
[3] = Enzyme Assay A, ADPGlo (Example 8), read-out: A: Enzymatic GRK2: IC50 (nM) (Example 8)
[4] = 7.5 nM GRK2, 10 μM ATP, ADP-Glo, read-out: GRK2 IC50 (nM) (Example 8)

Compound	IC50 (GRK2; [2]) [nM]	pIC50 [1]	IC50 (GRK2; [3]) [nM]	IC50 (GRK2; [4]) [nM]
Cn1c(CNc2cccc(C(=O)NCc3ccccc3S(=O)(=O)NC(C)(C)C)c2)nnc1-c1ccncn1	54	5.37		
CCCC(NC(=O)c1cccc(NCc2nnc(-c3ccncn3)n2C)c1)c1ccccn1 (stereo not drawn)		5.91	67	
CCn1ncnc1CNC(=O)c1cccc(NCc2nnc(-c3ccncn3)n2C)c1		< 5.00	370	
COc1cccc(CNC(=O)c2cccc(NCc3nnc(-c4ccncn4)n3C)c2)c1C	12.6	< 4.90		
Cc1ccnc(CNC(=O)c2cccc(NCc3nnc(-c4ccncn4)n3C)c2)c1F	50.2	< 4.52		
COc1cccc([C@@H](C)NC(=O)c2cccc(NCc3nnc4n3CCOc3cnccc3-4)c2)c1	15.9	< 5.44		
Cn1c(CNc2cccc(C(=O)NCc3cncc4c3CCC4)c2)nnc1-c1ccncn1	15.3	< 4.93		
CC(NC(=O)c1cccc(NCc2nnc(-c3ccncn3)n2C)c1)c1nccn1C (stereo not drawn)		6.23	24	
Cn1c(CNc2cc(C(=O)N[C@H]3COc4cc(F)ccc43)ccn2)nnc1-c1ccncn1	118	5.71		
Cn1c(CNc2cccc(C(=O)N[C@H](CO)c3cc(F)ccc3F)c2)nnc1-c1ccncn1	43.4	< 4.52		
Cn1c(CNc2cccc(C(=O)NCc3cccc(C#N)c3F)c2)nnc1-c1ccncn1		< 5.00	30	
Cc1cncc(C(C)NC(=O)c2cccc(NCc3nnc(-c4ccncn4)n3C)c2)c1 (stereo not drawn)	16.2	6.11		
Cc1cccc2c1OCC[C@@H]2NC(=O)c1cccc(NCc2nnc(-c3ccncn3)n2C)c1		< 5.00	15	
Cn1c(CNc2cccc(C(=O)NCc3ccon3)c2)nnc1-c1ccncn1		< 4.52	23	
Cc1ccccc1C(CO)NC(=O)c1cccc(NCc2nnc(-c3ccncn3)n2C)c1 (stereo not drawn)		5.06	33	
Cn1c(CNc2cccc(C(=O)NCc3ncccc3C(F)(F)F)c2)nnc1-c1ccncn1		< 5.00	17	
Cn1c(CNc2cccc(C(=O)NCc3cccc4c3NC(=O)CO4)c2)nnc1-c1ccncn1	9.78	5.52		
COc1ccc2c(c1)OCC[C@H]2NC(=O)c1cccc(NCc2nnc(-c3ccncn3)n2C)c1		6.31	60.9	
CC(C)n1nccc1CNC(=O)c1cccc(NCc2nnc(-c3ccncc3)[nH]2)c1		< 5.00	20	
Cc1ccc(C#N)cc1CNC(=O)c1ccnc(NCc2nnc(-c3ccncn3)n2C)c1	7.07	5.85		
Cn1c(CNc2cccc(C(=O)NCc3cnccn3)c2)nnc1-c1ccncn1		< 4.52	37	
Cn1c(CNc2cccc(C(=O)N[C@H]3COCc4ccccc43)c2)nnc1-c1ccncc1F		7.21	32.5	
CCCn1c(CNc2cccc(C(=O)N[C@H]3COc4cc(F)ccc43)c2)nnc1-c1ccncn1		< 4.52	10.5	
Cn1c(CNc2cccc(C(=O)NCc3ccncc3-c3cc[nH]n3)c2)nnc1-c1ccncn1	53.5	< 4.63		
Cc1cc(CNC(=O)c2cccc(NCc3nnc(-c4ccncn4)n3C)c2)nn1C		< 4.52	41	
Cc1cccnc1CNC(=O)c1cccc(NCc2nnc(-c3ccncc3)[nH]2)c1	12.2	< 4.52		

Compound	IC50 (GRK2; [2]) [nM]	pIC50 [1]	IC50 (GRK2; [3]) [nM]	IC50 (GRK2; [4]) [nM]
Cc1cc(C)c(CNC(=O)c2cccc(NCc3nnc(-c4ccncn4)n3C)c2)c(=O)[nH]1	14.9	< 4.52		
Cn1c(CNc2cccc(C(=O)NCc3ccccc3CS(=O)(=O)N3CCCC3)c2)nnc1-c1ccncn1	107			
Cn1nccc1CNC(=O)c1cccc(NCc2nnc(-c3ccncn3)n2C)c1 [compound 51]				5.7
Cn1c(CNc2cccc(C(=O)NCc3ccccc3S(=O)(=O)N3CCCCC3)c2)nnc1-c1ccncn1	50.5			
Cc1ccc(CNC(=O)c2cccc(NCc3nnc(-c4ccncn4)n3C)c2)c(N2CCOCC2)c1	412			
Cn1c(CNc2cc(C(=O)N[C@@H]3COc4cc(F)ccc43)ccn2)nnc1-c1ccncn1	37.5			
COc1cccc([C@H](C)NC(=O)c2cccc(NCc3nnc(-c4ccncc4)n3C)c2)c1			117	
Cn1c(CNc2cccc(C(=O)NCc3cccnc3N3CCOCC3)c2)nnc1-c1ccncn1	176			
Cn1ccnc1C(NC(=O)c1cccc(NCc2nnc(-c3ccncc3)[nH]2)c1)C1CC1 (stereo not drawn) [compound 50]				5.5
CCN1CCN(Cc2ccccc2CNC(=O)c2cccc(NCc3nnc(-c4ccncn4)n3C)c2)CC1	267			
Cn1c(CNc2cccc(C(=O)NC(CO)c3c(F)cccc3F)c2)nnc1-c1ccncn1 (stereo not drawn)	146			
CCc1n[nH]c(=O)c(CNC(=O)c2cccc(NCc3nnc(-c4ccncn4)n3C)c2)c1CC	504			
Cn1c(CNc2cccc(C(=O)NCc3cc(Br)cnc3O)c2)nnc1-c1ccncn1	103			
Cc1cnc(CNC(=O)c2cccc(NCc3nnc(-c4ccncn4)n3C)c2)nc1			580	
CC(Cc1nccn1C)NC(=O)c1cccc(NCc2nnc(-c3ccncn3)n2C)c1 (stereo not drawn)	732			
CCn1ccnc1C(C)NC(=O)c1cccc(NCc2nnc(-c3ccncn3)n2C)c1 (stereo not drawn)	189			
CC(NC(=O)c1cccc(NCc2nnc(-c3ccncn3)n2C)c1)c1nnc2ccccn12 (stereo not drawn)			260	
Cn1c(CNc2cccc(C(=O)NCc3cc(F)ccc3N3CCOCC3)c2)nnc1-c1ccncn1	104			
Cn1c(CNc2cccc(C(=O)NCc3cnccc3Cl)c2)nnc1-c1ccncn1 [compound 47]				4.3
Cn1c(CNc2cccc(C(=O)N[C@@H](CF)c3ccccc3)c2)nnc1-c1ccncn1			97	
Cn1c(CNc2cccc(C(=O)N[C@@H]3COc4cc(F)ccc43)c2)nnc1-c1ccncc1			143	
CC1Cc2cc(CNC(=O)c3cccc(NCc4nnc(-c5ccncn5)n4C)c3)ccc2O1 (stereo not drawn) [compound 32]				22
Cc1cc2c(cc1CNC(=O)c1cccc(NCc3nnc(-c4ccncn4)n3C)c1)OCCO2 [compound 36]				0.5
COc1ccccc1[C@H](NC(=O)c1cccc(NCc2nnc(-c3ccncn3)n2C)c1)c1noc(C)n1	741			
Cn1c(CNc2cccc(C(=O)NCc3cccc(C#N)c3)c2)nnc1-c1ccncn1 [compound 43]				2.7
